Tests used:
[1] = test system: HeLa cells; experiment: Apoptosis analysis, Annexin V-FITC/PI flow cytometry; format: cell-based, human; conditions: 24 h
Experimental: (§1) After incubation, cells were harvested and incubated using […] of Annexin-V/FITC (BD, America) in binding buffer (10 mM HEPES, 140 mM NaCl, and 2.5 mM CaCl2 at pH 7.4) at room temperature for 15 min. The PI solution was then added to the medium for another 10 min incubation. Almost 10,000 events were collected for each sample and analyzed using flow cytometry (BD, LSRFortessa, New York, NY, USA). The procedure for the remaining Western blot was the same as in Section 3.3.3.

[2] = test system: Bcl-2; experiment: Western blot, Bcl-2 in HeLa cells; format: cell-based, human; conditions: HeLa, 2, 4 and 6 μM, 24 h, versus control, p < 0.05
Experimental: (§2) Next, the protein concentrations were determined using a BCA Protein Assay Kit (Solarbio, China). An equal amount of the proteins (12 μg) were separated using 8–12% sodium dodecyl sulfate–polyacrylamide gel electrophoresis (SDS-PAGE) and transferred to nitrocellulose membranes (Amersham Biosciences, Little Chalfont, Buckinghamshire, UK). Then, the membranes were blocked with 5% nonfat dried milk in TBS containing 1% Tween-20 for 2 h at room temperature and were incubated overnight with specific primary antibodies (CST, Boston, MA, USA) at 4 °C. After three washes in TBST, the membranes were incubated with the appropriate HRP-conjugated secondary antibodies at room temperature for 2 h. The blots were developed using enhanced chemiluminescence (Biosharp, Shanghai, China) and were detected using a PE 0723 imager (ProteinSimple, Silicon Valley, CA, USA). Each experiment was performed at least in triplicate and analyzed using Image J software (V1.8.0.112). […]
as §1, with “The PI solution was then added to the medium for another 10 min incubation.” left out, “The procedure for the remaining Western blot was the same as in Section 3.3.3.” left out

[3] = test system: Bax; experiment: Western blot, Bax in HeLa cells; format: cell-based, human; conditions: HeLa, 2, 4 and 6 μM, 24 h, versus control, p < 0.05
Experimental: as §2
as §1, with “The PI solution was then added to the medium for another 10 min incubation.” left out, “The procedure for the remaining Western blot was the same as in Section 3.3.3.” left out

[4] = test system: HeLa/DDP cells; experiment: MTT assay, cisplatin-resistant HeLa/DDP cells; format: cell-based, human
Experimental: The cytotoxicity of the target compounds were measured in vitro using the MTT assay. Cells grown in the logarithmic phase were counted and seeded in 96-well cell culture plates (5 × 10^3 cells per well) for 24 h to allow attachment of cells to the wall of the plate. […] Next, 20 μL of 5 mg.mL^−1 MTT solution was added to each well and cultured for 4 h. The old solution was discarded, replaced with 150 μL DMSO solution per well, and shaken for 10 min. The OD value was measured under 490 nm, and the inhibition rate was calculated. The nonlinear regression fitting of the cell growth rate was carried out using SPSS 23.0 software, and the IC50 of the compound was calculated. […] A complete medium containing only cells was used as the blank control, whereas a complete medium without cells was the negative control group.
To reduce the adverse reactions caused by the fixation of drug resistance reversal agents, the concentration that reduces the proliferation rate of tumor cells by less than 10% was selected.

[5] = test system: HeLa cells; experiment: Transwell migration assay; format: cell-based, human; conditions: 24 h, control 1205
Experimental: Initially, HeLa (5 × 10^4 cells) were suspended in 200 μL of an FBS-free medium. […] The lower chamber was filled with 600 μL of medium containing 10% FBS. After incubating at 37 °C for 24 h, the cells on the top side of the transwell membrane were removed with a cotton tip. The cells trapped on the bottom side of the membrane were fixed using methanol and stained using 0.1% crystal violet solution for 30 min, respectively.

[6] = test system: HUVEC cells; experiment: In vitro HUVEC inhibitory assay (MTT); format: cell-based; conditions: Homo sapiens, 48 h, ± SD
Experimental: HeLa and SiHa cell lines were obtained from the Procell Life Science Technology Co., Ltd. (Wuhan, China); H8 cell line was obtained from the Shanghai HonSun Biological Technology Co., Ltd. (Shanghai, China); HUVEC cell line was obtained from the Saibaikang (Shanghai) Biotechnology Co., Ltd. (Shanghai, China); HeLa/DDP cell line was obtained from the Guangzhou Jenniobio Biotechnology Co., Ltd. (Guangzhou, China). HeLa, SiHa, H8, and HeLa/DDP cells were cultured in DMEM medium (HyClone). The VEGF of 50 ng/mL was used as the promoter of the VEGFR-2 receptor on HUVEC cell membrane surfaces, and their inhibitory effects on VEGFR-2 were determined. All the mediums were supplemented with 10% FBS (HyClone, GE Healthcare, Australia). Cells were maintained at subconfluency at 37 °C in humidified air containing 5% CO2. The cells were monitored daily and maintained at 80% cell density. All compounds tested were dissolved in DMSO and then diluted by the culture medium before the treatment of cultured cells. Identification reports are available for all types of cell lines involved in this study.
The cytotoxicity of the target compounds were measured in vitro using the MTT assay. Cells grown in the logarithmic phase were counted and seeded in 96-well cell culture plates (5 × 10^3 cells per well) for 24 h to allow attachment of cells to the wall of the plate. […] Next, 20 μL of 5 mg.mL^−1 MTT solution was added to each well and cultured for 4 h. The old solution was discarded, replaced with 150 μL DMSO solution per well, and shaken for 10 min. The OD value was measured under 490 nm, and the inhibition rate was calculated. The nonlinear regression fitting of the cell growth rate was carried out using SPSS 23.0 software, and the IC50 of the compound was calculated. […] There were 6 compound holes in each group, and the experimental results were presented as the average of 3 experiments. A complete medium containing only cells was used as the blank control, whereas a complete medium without cells was the negative control group. Cisplatin and sorafenib were utilized as the positive control group, and the target compound was the experimental intervention group.
After incubation for 24 h, the cell was collected using centrifugation and washed twice using PBS chilled to 0 °C. Then, the cells were homogenized in RIPA lysis buffer and 1% PMSF, 1% mixed phosphatase inhibitor (Solarbio, Beijing, China). The lysates were incubated on ice for 30 min, intermittently vortexed every 5 min, and centrifuged at 12,000 rpm for 20 min to harvest the supernatants.

COc1cc(O)c(C(=O)/C=C/c2ccc(CN3CCC(C)CC3)cc2)cc1CN1CCC(O)CC1 [6f, (E)-1-(2-hydroxy-5-((4-hydroxypiperidin-1-yl)methyl)-4-methoxyphenyl)-3-(4-((4-methylpiperidin-1-yl)methyl)phenyl)prop-2-en-1-one]
proapoptotic rate ([1]; 2 μM): 13.4%
proapoptotic rate ([1]; 4 μM): 20.7%
proapoptotic rate ([1]; 6 μM): 34.6%
expression of Bcl-2 (Western blot) [2]: significantly downregulating the expression of Bcl-2
expression of Bax (Western blot) [3]: significantly upregulated the expression of Bax
inhibitory rate on HeLa/DDP cell line ([4]; 6f alone at 0.25, 0.5 and 1 μM): less than 10%
RI (resistance index) ([4]; HeLa/DDP versus HeLa, single agent): 1.19
IC50 ([4]; Homo sapiens, cisplatin-resistant HeLa/DDP cells, single agent, 48 h, read-out: 48h IC50 HeLa/DDP): 7.74 ± 0.36 µM
number of migrating cells ([5]; 2 μM): 372
number of migrating cells ([5]; 4 μM): 132
number of migrating cells ([5]; 6 μM): 71
IC50 [6]: 7.14 ± 0.91 µM

Reference: article PMC10254235, “Design, Synthesis, and Anti-Cervical Cancer and Reversal of Tumor Multidrug Resistance Activity of Novel Nitrogen-Containing Heterocyclic Chalcone Derivatives” (Molecules, 2023)
